The values that follow come from article PMC2908543, “Uropathogenic Escherichia coli Modulates Immune Responses and Its Curli Fimbriae Interact with the Antimicrobial Peptide LL-37” (PLoS Pathogens, 2010).

“Also recorded” adds a separate entry of the source.

For test [1], the system named is Pseudomonas aeruginosa. The conditions noted are these: ref [46]; cited from earlier work. The source says:
Biofilm inhibition by antimicrobial polypeptides has previously been described for Pseudomonas aeruginosa. […] A direct interaction with biofilm components was not investigated in these studies. The effect was rather related to an influence of LL-37 on the bacterial gene expression profile or an influence of lactoferrin on free iron. These and our findings stress an important anti-biofilm role of antimicrobial polypeptides in host defense. It is likely that the anti-biofilm activit ...

For test [2], the target named is T1, monomeric CsgA (Escherichia coli, UniProt P28307).
T1 construct: made in house; host or cells: E. coli LSR12 (C600::csg), co-expressed with CsgG
Briefly: Surface plasmon resonance, monomeric CsgA. The conditions noted are these: monomeric CsgA immobilized (2000 response units), 0.1 µM peptide, 20 µl/min for 3 min, HBS-EP, Biacore 3000; binding constants not determinable. Here is the method:
(§1) Binding analysis of LL-37 to both monomeric and polymeric CsgA was performed with surface plasmon resonance (Biacore 3000 instrument; Biacore AB, Uppsala, Sweden). Both monomeric and polymeric CsgA was immobilized on a CM5 sensor chip (Biacore AB) surface by amine coupling. The chip surface was normalized in 70% glycerol and lanes on the chip were activated with injection of 35 µL 0.05 M N-hydroxysuccinimide (NHS)/0.2 M N-ethyl-N′-[3-dimethylamino) propyl]carbodiimide (EDC). Polymeric or monomeric CsgA (1 µM in 10 mM sodium acetate, pH 4.5) was then immobilized on the chip to 7000 response units and 2000 response units, respectively. After immobilization, the lanes were subjected to 60 µL ethanolamine (1 M, pH 8.5) to deactivate remaining activated carboxylic groups. One lane, activated and deactivated, was used as negative control (without addition of CsgA). Standard Biacore HBS-EP (Biacore AB) was utilized as running buffer, and 0.1 µM LL-37, sLL-37 or VIP were injected at 20 µl/min for 3 min. The surface was regenerated after each cycle with 100 mM HCl.
In general terms: Surface plasmon resonance follows binding to a sensor surface in real time, without labels.

Test [3] deals with T2, polymeric CsgA (Escherichia coli, UniProt P28307).
T2 construct: made in house; host or cells: E. coli LSR12 (C600::csg), co-expressed with CsgG
Briefly: Surface plasmon resonance, polymeric CsgA. To be noted: polymeric CsgA immobilized (7000 response units), 0.1 µM peptide, 20 µl/min for 3 min, HBS-EP, Biacore 3000; binding constants not determinable. Here is the method: as §1

Test [4] has as its system curli-mediated biofilm formation by E. coli. Briefly: Effect on formation of biofilm, crystal violet microtiter plate. The test is classed as cell-based, Escherichia coli. Here is the method: To measure the ability of the bacteria to adhere and to form biofilm a crystal violet assay in polystyrene microtiter plates (Costar, Corning, NY, USA) was performed. Bacteria were grown in Luria-Bertani (LB) broth without salt for 24 h at 37°C without shaking. Biofilm was then stained with crystal violet (3%). The dye was solubilized with ethanol (95%) and the optical density was measured at 570 nm.
Plates were filled with 90 µL bacterial culture of planktonic cells and 10 µL of aqueous solution of LL-37 in the same concentrations as in the susceptibility assay. As control peptides, sLL-37 (Innovagen AB) and VIP [27] with similar structural properties as LL-37 were utilized. The plates were incubated without shaking at 37°C for 20 h. After incubation, the amount of biofilm formed was determined as described above.

Test [5] has as its system CsgA fiber formation. Briefly: CsgA fiber formation, Thioflavin T, confocal microscopy. The test is classed as biochemical, Escherichia coli. Here is the method: (§2) CsgA-His6 and CsgG, a lipoprotein that is required for CsgA secretion, were overexpressed in LSR12 (C600::csg). The purification procedure of recombinant CsgA-His6 was performed as previously described with some modifications. The filtrate was incubated with nickel-nitrilotriacetic acid (Ni-NTA) agarose (Invitrogen) for 1 h at 4°C with shaking, centrifuged at 200×g for 5 min and transferred to a polyprep chromatography column (Bio-Rad, Hercules, CA, USA). To confirm protein identity of CsgA-His6, the isolated protein was prepared and subjected to SDS-PAGE as described below, and thereafter the protein was transferred from the gel to a polyvinylidene fluoride (PVDF) membrane (Invitrogen) at 160 mA for 60 min. The band of 15 kDa, corresponding to the molecular weight of CsgA-His6, was excised from the membrane stained with Coomassie Blue and analysed with N-terminal sequence analysis as has been described. Since it has previously been shown that CsgA-His6 has the same polymerizing properties as wild-type CsgA [59], we refer to CsgA-His6 as CsgA.
Recombinant monomeric CsgA was mixed with equimolar LL-37, sLL-37 or VIP and 20 µM ThT, and incubated over night at 37°C, washed twice, and suspended in 10 mM Kpi, pH 7.2 before mounting in ProLong Gold antifade mounting medium (Invitrogen). Images were acquired on a Leica TCS SP5 confocal microscope using a 20× objective. Fluorescence intensity was quantified using ImageJ software. The difference in fluorescence intensity of CsgA with and without peptides was calculated and corrected for the contribution of fluorescence from the peptides themselves.

In test [6] the target is T3, CsgA polymerization (Escherichia coli, UniProt P28307).
T3 construct: made in house; host or cells: E. coli LSR12 (C600::csg), co-expressed with CsgG
Briefly: CsgA polymerization, Thioflavin T assay, Tecan plate reader. The test is classed as biochemical. The conditions noted are these: 20 µM ThT, 37°C. Here is the method: as §2
Purified recombinant monomeric CsgA (10 µM) with or without different concentrations of the peptides LL-37, sLL-37 or VIP was mixed with 20 µM of the fiber-specific fluorescent probe ThT (Sigma-Aldrich). Fluorescence was measured with a Tecan infinite M200 reader (Tecan Nordic AB, Täby, Sweden). The excitation and emission wavelength was 430 and 490 nm, respectively. Measurements were conducted at 37°C every 10 min after shaking the sample for five seconds. Background fluorescence of the peptides themselves was subtracted.

T3 sequence (P28307 21-151): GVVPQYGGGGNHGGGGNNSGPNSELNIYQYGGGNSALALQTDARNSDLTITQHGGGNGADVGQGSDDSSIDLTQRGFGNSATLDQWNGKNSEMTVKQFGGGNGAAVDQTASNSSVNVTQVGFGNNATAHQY
T1 sequence (P28307 21-151): as above
T2 sequence (P28307 21-151): as above

For `CC[C@H](C)[C@H](NC(=O)[C@H](CCCCN)NC(=O)[C@H](CCC(=O)O)NC(=O)[C@H](CCCCN)NC(=O)[C@H](CO)NC(=O)[C@H](CCCCN)NC(=O)[C@H](CCCNC(=N)N)NC(=O)[C@H](Cc1ccccc1)NC(=O)[C@H](Cc1ccccc1)NC(=O)[C@H](CC(=O)O)NC(=O)CNC(=O)[C@H](CC(C)C)NC(=O)[C@@H](N)CC(C)C)C(=O)NCC(=O)N[C@@H](CCCCN)C(=O)N[C@@H](CCC(=O)O)C(=O)N[C@@H](Cc1ccccc1)C(=O)N[C@@H](CCCCN)C(=O)N[C@@H](CCCNC(=N)N)C(=O)N[C@H](C(=O)N[C@H](C(=O)N[C@@H](CCC(N)=O)C(=O)N[C@@H](CCCNC(=N)N)C(=O)N[C@H](C(=O)N[C@@H](CCCCN)C(=O)N[C@@H](CC(=O)O)C(=O)N[C@@H](Cc1ccccc1)C(=O)N[C@@H](CC(C)C)C(=O)N[C@@H](CCCNC(=N)N)C(=O)N[C@@H](CC(N)=O)C(=O)N[C@@H](CC(C)C)C(=O)N[C@H](C(=O)N1CCC[C@H]1C(=O)N[C@@H](CCCNC(=N)N)C(=O)N[C@H](C(=O)N[C@@H](CCC(=O)O)C(=O)N[C@@H](CO)C(=O)O)[C@@H](C)O)C(C)C)[C@@H](C)CC)C(C)C)[C@@H](C)CC` [LL-37], in test [1], the “bacterial surface motility mediated by type IV pili” value is given as “increased bacterial surface motility”. Moreover, the “binding / association and dissociation by SPR” value in test [2] is “higher association with CsgA than the control peptides; also recorded: stronger association and lower dissociation rates”; in test [3], “higher association with CsgA than the control peptides; also recorded: stronger association and lower dissociation rates”. The “reduction of biofilm formation” value is reported as “more than 80%” in test [4] (2.5 µM LL-37, wild-type strain expressing curli and cellulose (data not shown)); “more than 80%” in test [4] (2.5 µM peptide, cellulose-negative, curli-expressing E. coli strain, 37°C, 20 h, two experiments in triplicates). For the same compound, the “biofilm-inhibitory versus bactericidal concentrations” value in test [4] (qualitative comparison) is reported as “much lower than bactericidal concentrations”. Further, in test [5] (CsgA with equimolar peptide (1∶1), 20 µM ThT, 20 h at 37°C, CsgA alone = 1 arbitrary unit, corrected for peptide fluorescence, two experiments), the “fluorescence relative to CsgA alone” value was found to be 0.05 arbitrary units. For the same compound, in test [5] (molar ratio 1∶1, P = 0.007 versus sLL-37 and P = 0.011 versus VIP), the “inhibition of CsgA fiber formation versus sLL-37 and VIP” value is “significantly stronger than the effect of sLL-37; also recorded: evidently stronger for LL-37”. Also, the “inhibition of CsgA polymerization (ThT fluorescence)” value in test [6] (10 µM CsgA with different concentrations of peptide) is recorded as “inhibited by LL-37 in a dose-dependent manner”; in test [6] (10 µM CsgA, molar ratio 1∶1 (CsgA∶LL-37), excitation 430 nm, emission 490 nm) it was “fiber formation was completely inhibited”.
